Where a name gives a salt, the structure may show the parent alone.
Legend:
[1] = Adverse events after a single dose of 14C anlotinib suspension; format: in vivo, human
[2] = test system: human cytochrome P450 3A4; design: method as in PMID 29441353; settings: in vitro; read-out: Half maximum inhibitory concentration; cited from earlier work

For COc1cc2c(Oc3ccc4[nH]c(C)cc4c3F)ccnc2cc1OCC1(N)CC1 [anlotinib, 1-[[4-(4-fluoro-2-methyl-1H-indol-5-yloxy)-6-methoxyquinolin-7-yl]oxy]methyl) cyclopropanamine dihydrochloride], the “Liver function damage: number of cases of grade 3 (%)” value ([1]; D1 ~ D18, N = 6) was 1 (16.67%) n (%), the “Proteinuria: number of cases of grade 1/2 (%)” value ([1]; D1 ~ D18, N = 6) was 1 (16.67%) n (%) and the “Proteinuria: number of cases of grade 3 (%)” value ([1]; D1 ~ D18, N = 6) was 0 n (%). The “Rapid atrial fibrillation: number of cases of grade 1/2 (%)” value ([1]; D1 ~ D18, N = 6) was 1 (16.67%) n (%), the “Rapid atrial fibrillation: number of cases of grade 3 (%)” value ([1]; D1 ~ D18, N = 6) was 0 n (%) and the “Sinus bradycardia: number of cases of grade 1/2 (%)” value ([1]; D1 ~ D18, N = 6) was 1 (16.67%) n (%). For the same compound, the “Sinus bradycardia: number of cases of grade 3 (%)” value ([1]; D1 ~ D18, N = 6) was 0 n (%), the “Sinus tachycardia: number of cases of grade 1/2 (%)” value ([1]; D1 ~ D18, N = 6) was 1 (16.67%) n (%) and the “Sinus tachycardia: number of cases of grade 3 (%)” value ([1]; D1 ~ D18, N = 6) was 0 n (%). The “Stomachache: number of cases of grade 1/2 (%)” value ([1]; D1 ~ D18, N = 6) was 1 (16.67%) n (%), the “Stomachache: number of cases of grade 3 (%)” value ([1]; D1 ~ D18, N = 6) was 0 n (%) and the “Alkaline phosphatase increased: number of cases of grade 1/2 (%)” value ([1]; Research process, N = 6) was 1 (16.67%) n (%). The “Alkaline phosphatase increased: number of cases of grade 3 (%)” value ([1]; Research process, N = 6) was 0 n (%), the “Anemia: number of cases of grade 1/2 (%)” value ([1]; Research process, N = 6) was 1 (16.67%) n (%) and the “Anemia: number of cases of grade 3 (%)” value ([1]; Research process, N = 6) was 0 n (%). The “Aspartate aminotransferase increased: number of cases of grade 1/2 (%)” value ([1]; Research process, N = 6) was 0 n (%), the “Aspartate aminotransferase increased: number of cases of grade 3 (%)” value ([1]; Research process, N = 6) was 1 (16.67%) n (%) and the “At least once (any adverse event): number of cases of grade 3 (%)” value ([1]; Research process, N = 6) was 3 (50%) n (%). The “Constipation: number of cases of grade 1/2 (%)” value ([1]; Research process, N = 6) was 2 (33.33%) n (%), the “Constipation: number of cases of grade 3 (%)” value ([1]; Research process, N = 6) was 0 n (%) and the “Cough: number of cases of grade 1/2 (%)” value ([1]; Research process, N = 6) was 1 (16.67%) n (%). The “Cough: number of cases of grade 3 (%)” value ([1]; Research process, N = 6) was 0 n (%), the “Diarrhea: number of cases of grade 1/2 (%)” value ([1]; Research process, N = 6) was 2 (33.33%) n (%) and the “Diarrhea: number of cases of grade 3 (%)” value ([1]; Research process, N = 6) was 0 n (%). For the same compound, the “Hemoptysis: number of cases of grade 1/2 (%)” value ([1]; Research process, N = 6) was 1 (16.67%) n (%), the “Hemoptysis: number of cases of grade 3 (%)” value ([1]; Research process, N = 6) was 0 n (%) and the “Hypertriglyceridemia: number of cases of grade 1/2 (%)” value ([1]; Research process, N = 6) was 1 (16.67%) n (%). The “Hypertriglyceridemia: number of cases of grade 3 (%)” value ([1]; Research process, N = 6) was 0 n (%), the “Hypoalbuminemia: number of cases of grade 1/2 (%)” value ([1]; Research process, N = 6) was 3 (50%) n (%) and the “Hypoalbuminemia: number of cases of grade 3 (%)” value ([1]; Research process, N = 6) was 0 n (%). The “Hypocalcemia: number of cases of grade 1/2 (%)” value ([1]; Research process, N = 6) was 1 (16.67%) n (%), the “Hypocalcemia: number of cases of grade 3 (%)” value ([1]; Research process, N = 6) was 0 n (%) and the “Hypophosphatemia: number of cases of grade 1/2 (%)” value ([1]; Research process, N = 6) was 1 (16.67%) n (%). For the same compound, the “Hypophosphatemia: number of cases of grade 3 (%)” value ([1]; Research process, N = 6) was 1 (16.67%) n (%), the “Hypothyroidism: number of cases of grade 1/2 (%)” value ([1]; Research process, N = 6) was 1 (16.67%) n (%) and the “Hypothyroidism: number of cases of grade 3 (%)” value ([1]; Research process, N = 6) was 0 n (%). The “Increased alanine aminotransferase: number of cases of grade 1/2 (%)” value ([1]; Research process, N = 6) was 1 (16.67%) n (%), the “Increased alanine aminotransferase: number of cases of grade 3 (%)” value ([1]; Research process, N = 6) was 1 (16.67%) n (%) and the “Increased blood bilirubin: number of cases of grade 1/2 (%)” value ([1]; Research process, N = 6) was 1 (16.67%) n (%). For the same compound, the “Increased blood bilirubin: number of cases of grade 3 (%)” value ([1]; Research process, N = 6) was 1 (16.67%) n (%), the “Increased lactate dehydrogenase: number of cases of grade 1/2 (%)” value ([1]; Research process, N = 6) was 1 (16.67%) n (%) and the “Increased lactate dehydrogenase: number of cases of grade 3 (%)” value ([1]; Research process, N = 6) was 0 n (%). For the same compound, the “Increased lipase: number of cases of grade 1/2 (%)” value ([1]; Research process, N = 6) was 2 (33.33%) n (%), the “Increased lipase: number of cases of grade 3 (%)” value ([1]; Research process, N = 6) was 2 (33.33%) n (%) and the “Increased γ-glutamyl transpeptidase: number of cases of grade 1/2 (%)” value ([1]; Research process, N = 6) was 1 (16.67%) n (%). The “Increased γ-glutamyl transpeptidase: number of cases of grade 3 (%)” value ([1]; Research process, N = 6) was 1 (16.67%) n (%), the “Insomnia: number of cases of grade 1/2 (%)” value ([1]; Research process, N = 6) was 2 (33.33%) n (%) and the “Insomnia: number of cases of grade 3 (%)” value ([1]; Research process, N = 6) was 0 n (%). The “Liver function damage: number of cases of grade 1/2 (%)” value ([1]; Research process, N = 6) was 0 n (%), the “Liver function damage: number of cases of grade 3 (%)” value ([1]; Research process, N = 6) was 1 (16.67%) n (%) and the “Proteinuria: number of cases of grade 1/2 (%)” value ([1]; Research process, N = 6) was 1 (16.67%) n (%). For the same compound, the “Proteinuria: number of cases of grade 3 (%)” value ([1]; Research process, N = 6) was 0 n (%), the “Rapid atrial fibrillation: number of cases of grade 1/2 (%)” value ([1]; Research process, N = 6) was 1 (16.67%) n (%) and the “Rapid atrial fibrillation: number of cases of grade 3 (%)” value ([1]; Research process, N = 6) was 0 n (%). The “Sinus bradycardia: number of cases of grade 1/2 (%)” value ([1]; Research process, N = 6) was 1 (16.67%) n (%), the “Sinus bradycardia: number of cases of grade 3 (%)” value ([1]; Research process, N = 6) was 0 n (%) and the “Sinus tachycardia: number of cases of grade 1/2 (%)” value ([1]; Research process, N = 6) was 1 (16.67%) n (%). For the same compound, the “Sinus tachycardia: number of cases of grade 3 (%)” value ([1]; Research process, N = 6) was 0 n (%), the “Stomachache: number of cases of grade 1/2 (%)” value ([1]; Research process, N = 6) was 1 (16.67%) n (%) and the “Stomachache: number of cases of grade 3 (%)” value ([1]; Research process, N = 6) was 0 n (%). The “Patients in whom adverse events occurred” value ([1]; six patients, after a single dosage) was “five”, the “Patients in whom severe adverse events (SAE) occurred” value ([1]; six patients, follow-up period) was “one” and the IC50 [2] was 110 nM.
